What was measured:
S. mutans colonization = test: Sucrose-dependent Drosophila colonization model; type: in vivo; conditions: 50 μM
Experimental: Briefly, Gfp tagged S. mutans bacteria were infected into flies along with the treatment appropriate compound at 100 μM in a feeding-assay.
Mid-log phase THB cultures of Gfp-tagged (green fluorescent protein) S. mutans UA159 were spun down and resuspended in a solution containing 5% sucrose and 50 μM of the compound. 100 μL of resuspended cells were spotted onto a sterile filter that was placed on the surface of 5 mL of solidified 5% sucrose agar in a plastic vial. The vials were allowed to dry at room temperature for 30 minutes prior to addition of flies. Male Canton S flies (1-3 days old) were treated with antibiotics for 2 days and starved for 3 hours prior to the addition to vials supplied with S. mutans (10 flies per vial). The colonization of flies by Gfp-tagged strains were analyzed by Nikon elipse 90i microscope, equipped with an Epi-fluorescence and NIS elements AR imaging system.
The intensity of the fluorescence was measured in the guts of the flies fed with the Gfp tagged bacteria after 7 days of infection.
Cultures of Gfp-tagged (green fluorescent protein) S. mutans UA159 grown to middle log phase were spun down and re-suspended in a solution containing 5% sucrose and 50 μM of each compound. 100 μL of re-suspended cells were aliquoted onto a sterile filter that was placed on the surface of 5 mL of solidified 5% sucrose agar in a plastic vial. Upon the drying of the vials at room temperature for 30 min, the flies were introduced to the vessels. Male Canton S flies (1-3 days old) were treated with antibiotics for 2 days and starved for 3 h before the addition to vials supplied with S. mutans (10-14 flies per vial). Nikon elipse 90i microscope, equipped with an Epi-fluorescence and NIS elements AR imaging system was used to analyze the colonization of flies by Gfp-tagged strains.

[1] = test system: Actinomyces naeslundii T14VJ1; test: Growth of Actinomyces naeslundii; type: cell-based; conditions: 200 μM; printed as slight inhibition (>20%)
Experimental: Cell viability of S. mutans, S. gordonii, S. sanguinis, Aggregatibacter actinomycetemcomitans and Actinomyces. […] The number of colony-forming units (CFU) per milliliter of each sample treated with selected compounds at different concentrations was enumerated after incubation for 24 h at 37° C. and compared to the values obtained from the DMSO control group. Overnight broth cultures were transferred by 1:50 dilutions into fresh THB medium and were allowed to grow until mid-exponential phase (OD470 nm 0.6) before transfer to 96-well plates containing desired concentration of the compound. After 16 h incubation, bacterial growth was measured at OD470, and normalized to the DMSO control (100%).

GtfB = GtfB (Streptococcus mutans serotype c (strain ATCC 700610 / UA159), UniProt P08987); test: Zymographic assay on GtfB from S. mutans GtfCD mutants; type: biochemical; conditions: 25 μM
GtfB, sequence (P08987 35-1476 limits assumed): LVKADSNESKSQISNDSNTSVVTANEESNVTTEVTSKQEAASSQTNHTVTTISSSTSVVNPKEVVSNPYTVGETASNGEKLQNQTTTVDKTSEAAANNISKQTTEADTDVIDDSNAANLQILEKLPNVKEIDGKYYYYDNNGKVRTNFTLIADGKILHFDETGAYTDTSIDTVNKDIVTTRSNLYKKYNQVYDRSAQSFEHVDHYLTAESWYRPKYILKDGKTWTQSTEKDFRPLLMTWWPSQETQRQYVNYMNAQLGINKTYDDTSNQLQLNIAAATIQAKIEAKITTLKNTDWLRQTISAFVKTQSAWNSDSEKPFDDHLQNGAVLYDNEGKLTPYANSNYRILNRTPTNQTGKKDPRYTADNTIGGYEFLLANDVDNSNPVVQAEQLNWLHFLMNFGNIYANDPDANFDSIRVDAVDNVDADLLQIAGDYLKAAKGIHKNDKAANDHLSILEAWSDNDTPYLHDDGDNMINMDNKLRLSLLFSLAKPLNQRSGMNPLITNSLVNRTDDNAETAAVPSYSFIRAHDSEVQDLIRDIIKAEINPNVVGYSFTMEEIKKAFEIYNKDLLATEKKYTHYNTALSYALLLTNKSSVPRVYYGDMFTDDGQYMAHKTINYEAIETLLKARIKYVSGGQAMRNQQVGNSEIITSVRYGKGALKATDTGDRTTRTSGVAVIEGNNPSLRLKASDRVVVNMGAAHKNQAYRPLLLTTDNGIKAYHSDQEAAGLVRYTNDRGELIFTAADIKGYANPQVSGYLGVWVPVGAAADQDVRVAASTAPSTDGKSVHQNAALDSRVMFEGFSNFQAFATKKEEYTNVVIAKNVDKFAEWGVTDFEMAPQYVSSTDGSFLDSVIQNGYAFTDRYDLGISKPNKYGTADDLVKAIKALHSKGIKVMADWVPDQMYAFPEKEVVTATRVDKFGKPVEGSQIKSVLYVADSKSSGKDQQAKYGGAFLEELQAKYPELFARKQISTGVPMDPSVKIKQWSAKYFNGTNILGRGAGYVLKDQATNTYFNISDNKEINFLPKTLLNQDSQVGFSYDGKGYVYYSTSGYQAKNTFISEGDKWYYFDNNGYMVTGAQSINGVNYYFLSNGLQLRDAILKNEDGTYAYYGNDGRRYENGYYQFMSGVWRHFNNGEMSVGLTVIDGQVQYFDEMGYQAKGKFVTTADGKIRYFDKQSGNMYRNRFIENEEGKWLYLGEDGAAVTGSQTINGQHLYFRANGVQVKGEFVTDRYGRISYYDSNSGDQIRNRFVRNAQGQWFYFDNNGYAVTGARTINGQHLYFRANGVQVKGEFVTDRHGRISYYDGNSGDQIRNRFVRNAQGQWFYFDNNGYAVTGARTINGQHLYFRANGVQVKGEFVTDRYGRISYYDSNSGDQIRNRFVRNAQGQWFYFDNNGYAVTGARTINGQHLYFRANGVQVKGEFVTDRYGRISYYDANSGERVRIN
Experimental: (§1) FIGS. 3A-3C show Gtf patterns of S. mutans UA159 and its mutant variants. Culture supernatants were prepared from S. mutans UA159 and gtf double mutants, and then subjected to SDS-PAGE analysis with equivalent amount of proteins in each lane. […] The intensity of the bands were quantified using ImageJ in comparison to DMSO.
(§2) Supernatants containing Gtf proteins prepared from S. mutans bacterial cultures were subjected to SDS-PAGE analysis and zymographic assay. […] The same amount of the protein sample was used as controls and visualized by protein staining (FIG. 3A, top panels). The lead compounds were also tested against individual Gtfs using supernatant proteins harvested from cultures of various double mutants.
(§3) Construction of S. mutans Gtfs mutants. GtfB, GtfC single mutant, and GtfBC double mutant in which gtf was replaced with a kanamycin resistance cassette, aphA3 (encoding an aminoglycoside phosphotransferase), were gifts from Dr. Robert Burne's Laboratory, University of Florida, Gainesville, Fla. The GtfD mutant was constructed by an overlapping PCR ligation strategy using an erythromycin resistance cassette isolated from the IFDC2 cassette (Xie, Z., Okinaga, T., Qi, F., Zhang, Z. & Merritt, J. Cloning-independent and counterselectable markerless mutagenesis system in Streptococcus mutans. Appl Environ Microbiol 77, 8025-8033 (2011)).

S. gordonii biofilm = test: Mono-species biofilm of S. gordonii; type: cell-based, Streptococcus gordonii; conditions: treated with lead compound
Experimental: (§4) Growth of commensal and dual-species biofilms. Overnight broth cultures were transferred by 1:50 dilutions into fresh THB medium and were allowed to grow until mid-exponential phase (OD470 nm=0.6) before transfer to 96-well plates. For mono-species biofilms, 1:100 dilution of the individual cultures was added to the 96-well plate containing the desired concentration of compound or DMSO. After incubation for 16 h, the biofilms were gently washed with PBS in triplicate and the biofilms were quantified with crystal violet staining. For dual-species biofilms, 1:100 dilution of S. mutans was used and 1:10 dilution of the commensal species (S. sanguinius or S. gordonii) was used as inoculum to seed the 96-well plate containing the desired concentration of compound or DMSO. After incubation for 16 h, the biofilms were scratched off with a sterile spatula and suspended in 100 μL of PBS, the biofilm samples were vortexed. To determine the total number of viable bacterial cells (colony forming units, CFU), 100 μl from dispersed, 16 h biofilms were serially diluted in potassium phosphate buffer and plated in duplicate on BAP. The commensal species could be differentiated from S. mutans due to their characteristic green rings.

gtfs expression = test: Real time RT-PCR of gtfs expression; type: cell-based, Streptococcus mutans; conditions: S. mutans UA159, different concentrations, calibrated by 16S rRNA
Experimental: The expression of gtfs was examined by real time RT-PCR. The mRNA expression levels were calibrated by 16S rRNA. Values represent the means±standard deviations from three independent experiments. […] The P value>0.05 is considered to be not significant.
The effect of this potent small molecule on the gene expression of gtfs was also examined. The relative expression level of gtfs was evaluated by real time RT-PCR.

GtfC = GtfC (Streptococcus mutans serotype c (strain ATCC 700610 / UA159), UniProt P13470); test: Zymographic assay on GtfC from S. mutans GtfBD mutants; type: biochemical; conditions: 25 μM
GtfC, sequence (P13470 35-1455 limits assumed): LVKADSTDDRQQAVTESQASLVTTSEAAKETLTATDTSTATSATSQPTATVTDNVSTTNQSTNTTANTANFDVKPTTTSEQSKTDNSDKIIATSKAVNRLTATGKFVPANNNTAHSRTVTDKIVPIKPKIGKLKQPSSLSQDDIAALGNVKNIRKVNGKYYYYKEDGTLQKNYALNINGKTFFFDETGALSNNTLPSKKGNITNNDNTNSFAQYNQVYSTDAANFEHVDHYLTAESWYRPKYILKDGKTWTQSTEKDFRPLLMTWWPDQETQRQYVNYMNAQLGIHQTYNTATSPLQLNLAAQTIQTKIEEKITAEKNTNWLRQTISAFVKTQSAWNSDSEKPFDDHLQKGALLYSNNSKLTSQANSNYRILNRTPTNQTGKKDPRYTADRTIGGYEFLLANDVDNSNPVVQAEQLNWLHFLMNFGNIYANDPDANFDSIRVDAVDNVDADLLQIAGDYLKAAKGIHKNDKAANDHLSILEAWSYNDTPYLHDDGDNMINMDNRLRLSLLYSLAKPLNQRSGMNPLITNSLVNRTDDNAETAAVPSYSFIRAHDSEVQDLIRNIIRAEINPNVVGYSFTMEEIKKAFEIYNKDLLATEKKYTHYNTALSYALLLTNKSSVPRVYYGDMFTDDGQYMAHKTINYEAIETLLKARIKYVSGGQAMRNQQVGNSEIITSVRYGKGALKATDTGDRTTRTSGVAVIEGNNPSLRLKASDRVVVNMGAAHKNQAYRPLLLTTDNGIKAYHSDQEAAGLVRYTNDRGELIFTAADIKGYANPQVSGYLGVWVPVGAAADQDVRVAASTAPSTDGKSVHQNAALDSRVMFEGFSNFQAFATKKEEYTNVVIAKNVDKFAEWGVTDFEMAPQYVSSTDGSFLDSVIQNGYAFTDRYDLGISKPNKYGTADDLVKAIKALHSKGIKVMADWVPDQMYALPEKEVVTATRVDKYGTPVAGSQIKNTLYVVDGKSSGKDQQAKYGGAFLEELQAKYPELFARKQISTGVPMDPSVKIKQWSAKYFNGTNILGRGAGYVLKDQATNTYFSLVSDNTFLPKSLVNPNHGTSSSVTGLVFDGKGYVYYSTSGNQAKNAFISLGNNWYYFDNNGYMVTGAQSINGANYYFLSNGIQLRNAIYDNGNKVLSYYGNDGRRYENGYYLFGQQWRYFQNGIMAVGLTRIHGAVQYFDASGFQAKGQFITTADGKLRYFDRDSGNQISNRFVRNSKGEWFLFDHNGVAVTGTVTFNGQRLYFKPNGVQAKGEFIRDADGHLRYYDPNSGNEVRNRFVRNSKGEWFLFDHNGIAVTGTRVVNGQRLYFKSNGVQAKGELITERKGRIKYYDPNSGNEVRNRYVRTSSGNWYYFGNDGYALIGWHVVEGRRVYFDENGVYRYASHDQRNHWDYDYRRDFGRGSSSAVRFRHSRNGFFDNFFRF
Experimental: as §1, §2, §3

S. sanguinis biofilm = test: Mono-species biofilm of S. sanguinis; type: cell-based, Streptococcus sanguinis; conditions: up to 200 μM
Experimental: as §4

| SMILES | fluorescence of Gfp tagged S. mutans in fly guts after 7 days (S. mutans colonization) | inhibition of Actinomyces naeslundii growth [1] | inhibition of GtfB activity (ImageJ band intensity) (GtfB) | S. gordonii biofilm formation (S. gordonii biofilm) | expression of gtfs versus DMSO (gtfs expression) | inhibition of GtfC activity (ImageJ band intensity) (GtfC) | S. sanguinis biofilm formation versus control (S. sanguinis biofilm) |
| --- | --- | --- | --- | --- | --- | --- | --- |
| Oc1cc(O)cc(/C=C/c2ccc(O)c(O)c2)c1 [Piceatannol] | significant decrease in fluorescence | – | – | – | – | – | – |
| NC(=O)c1ccccc1NC(=O)c1cc2cc([N+](=O)[O-])ccc2s1 [#G43] | – | > 20% | 80% | slight increase | no significant difference was observed | 80% | No significant difference |
